Laboratory results reported in patent publication US20080161274A1, “Compounds and methods for inhibition of bone loss” (Resolvyx Pharmaceuticals, Inc., priority 2006, published 2008).

Columns and labels:
[1] = tested on: mice with established Type II collagen arthritis; test: 11 day male DBA/1J mouse established Type II collagen arthritis; format: in vivo; conditions: for clinical symptoms of arthritis (clinical scoring in the paws) / bone loss (histologic scoring) / pannus formation (histologic scoring): mice n=16; for clinical symptoms of arthritis (clinical scoring in the paws): vs arthritic control, FIG. 2a; for bone loss (histologic scoring) / pannus formation (histologic scoring): FIG. 2b
Procedure: Male DBA/1J mice (7-9 weeks old on arrival; at least 7 weeks old at time of first immunization) were housed 5 per cage and were acclimated for enough days after arrival such that all animals were at least 7 weeks old at start of study.
Mice were anesthetized with Isoflurane and given intradermal collagen (2 mg/ml) injections at the base of the tail in a volume of 150 μl (D0 and D21). On days 21-35, onset of arthritis occurred and mice were randomized into treatment groups. Randomization into each group was done after swelling was obviously established in at least one paw, and attempts were made to assure approximately equal mean scores across the groups at time of enrollment. Treatment was initiated after enrollment and continued every day for a total of 10 days as outlined in Table 3. During the ten days of treatment, clinical scores were given for each of the paws (right front, left front, right rear, and left rear) according to the scoring methods provided below.
• 0 normal • 1 1 hind or fore paw joint affected or minimal diffuse erythema and swelling • 2 2 hind or fore paw joints affected or mild diffuse erythema and swelling • 3 3 hind or fore paw joints affected or moderate diffuse erythema and swelling • 4 Marked diffuse erythema and swelling, or 4 digit joints affected • 5 Severe diffuse erythema and severe swelling entire paw, unable to flex digits
All dose solutions were prepared to deliver 10 ml/kg (0.3 ml/30 g mouse). On day 11 of arthritis, animals were euthanized, and both fore and hind limbs with knees were removed, placed into formalin and then processed for microscopy. Following 1-2 days in fixative and then 4-5 days in decalcifier, the joints were processed, embedded, sectioned and stained with toluidine blue. (Only fore and hind paws and knees were initially processed—6 joints/mouse.)
When scoring paws or ankles from mice with lesions of type II collagen arthritis, severity of changes as well as number of individual joints affected must be considered. When only 1-3 joints of the paws or ankles out of a possibility of numerous metacarpal/metatarsal/digit or tarsal/tibiotarsal joints were affected, an arbitrary assignment of a maximum score of 1, 2 or 3 from the scoring scale below was given depending on severity of changes. If more than 3 joints were involved, the full scoring scale below was applied only to the most severely affected/majority of joints.
• 0 Normal • 1 Minimal infiltration of pannus in cartilage and subchondral bone • 2 Mild infiltration with marginal zone destruction of hard tissue in affected joints • 3 Moderate infiltration with moderate hard tissue destruction in affected joints • 4 Marked infiltration with marked destruction of joint architecture, most joints • 5 Severe infiltration associated with total or near total destruction of joint architecture, affects all joints
• 0 Normal • 1 Minimal—small areas of resorption, not readily apparent on low magnification, rare osteoclasts in affected joints • 2 Mild—more numerous areas of resorption, not readily apparent on low magnification, osteoclasts more numerous in affected joints • 3 Moderate—obvious resorption of medullary trabecular and cortical bone without full thickness defects in cortex, loss of some medullary trabeculae, lesion apparent on low magnification, osteoclasts more numerous in affected joints • 4 Marked—Full thickness defects in cortical bone, often with distortion of profile of remaining cortical surface, marked loss of medullary bone, numerous osteoclasts, affects most joints • 5 Severe—Full thickness defects in cortical bone and destruction of joint architecture of all joints
Histologic parameters (mean ±SE) for each group were analyzed for differences using the Chi Square Test and one way ANOVA. Significance was set at p≦0.05.

rats with CIA = test: Rat collagen-induced arthritis (CIA), knee histopathology scoring; format: in vivo; conditions: rats n=9
Procedure: Female Lewis rats were anesthetized with 3-5% isoflurane and arthritis was induced by intradermal injection of 0.3 mL (100 μL at three different sites) of an emulsion containing 1.5 mg/mL of type II bovine collagen, CII (Elastin Products Inc., Cat# CM276), in incomplete Freund's adjuvant (IFA) at the base of the tail on day 0 and 6. Control rats were injected with an equal amount of IFA only.
The volume of both hind paws were measured using a water displacement plethysmometer (Ugo Basile, Biological Research Apparatus, Italy), and the onset of arthritis was indicated by increased paw volume, which appeared approximately on day 11 post injection. Both paw volumes and body weights were measured throughout the study every 2-3 days. Nineteen to twenty-one days after CII injection, the rats were euthanized with CO2. Blood was collected by cardiac puncture and serum was saved.
Bovine Type II collagen for tissue culture was purchased from Chondrex (Cat# 2022) and was reconstituted according to the manufacturer's instructions. All data were processed and analyzed by t-test using GraphPad Prism software.
After the animals were euthanized, both hind paws and knees were removed, hind paws were weighed, and the paws and knees were placed in formalin. Following 1-2 days in fixative and 4-5 days in decalcifier, the ankle joints were cut in half longitudinally, and the knees were cut in half in the frontal plane. The joints were then processed, embedded, sectioned and stained with toluidine blue. Collagen arthritic ankles and knees were given scores of 0-5 for inflammation, pannus formation and bone resorption according to the following criteria:
• 0 Normal • 1 Minimal infiltration of inflammatory cells in periarticular tissue • 2 Mild infiltration • 3 Moderate infiltration with moderate edema • 4 Marked infiltration with marked edema • 5 Severe infiltration with severe edema
• 0 Normal • 1 Minimal infiltration of pannus in cartilage and subchondral bone • 2 Mild infiltration (extends over up to ¼ of surface or subchondral area of tibia or femur) • 3 Moderate infiltration (extends over >¼ but <½ of surface or subchondral area of tibia or femur) • 4 Marked infiltration (extends over ½ to ¾ of tibial or femoral surface) • 5 Severe infiltration (covers >¾ of surface)
• 0 Normal • 1 Minimal: minimal to mild loss of toluidine blue staining with no obvious chondrocyte loss or collagen disruption • 2 Mild: mild loss of toluidine blue staining with focal mild (superficial) chondrocyte loss and/or collagen disruption • 3 Moderate: moderate loss of toluidine blue staining with multifocal to diffuse moderate (depth to middle zone) chondrocyte loss and/or collagen disruption • 4 Marked: marked loss of toluidine blue staining with multifocal to diffuse marked (depth to deep zone) chondrocyte loss and/or collagen disruption • 5 Severe: severe diffuse loss of toluidine blue staining with multifocal severe (depth to tide mark) chondrocyte loss and/or collagen disruption on both femur and tibia
• 0 Normal • 1 Minimal: small areas of resorption, not readily apparent on low magnification, rare osteoclasts • 2 Mild: more numerous areas of resorption, definite loss of subchondral bone involving ¼ of tibial or femoral surface (medial or lateral) • 3 Moderate: obvious resorption of subchondral bone involving >¼ but <½ of tibial or femoral surface (medial or lateral) • 4 Marked: obvious resorption of subchondral bone involving ≧½ but <¾ of tibial or femoral surface (medial or lateral) • 5 Severe: distortion of entire joint due to destruction involving >¾ of tibial or femoral surface (medial or lateral)

[2] = 0.5 μg/kg once daily i.v., vs vehicle control
[3] = 5.0 μg/kg once daily i.v., vs vehicle control
[4] = 0.3 mg/kg twice daily i.v., days 8 to 19, FIG. 3

CC[C@@H](O)/C=C/C=C\C[C@@H](O)/C=C/C=C/C=C\[C@@H](O)CCCC(=O)O [Compound X]
score of bone damage (histologic scoring in joints) ([1]; mice n=15, 5 μg/kg twice daily iv, vs vehicle control, FIG. 1): significant decrease
clinical symptoms of arthritis (clinical scoring in the paws) ([1]; 0.5 μg/kg once daily i.v.): inhibited
bone loss (histologic scoring) [1, 2]: reduced
pannus formation (histologic scoring) [1, 2]: reduced
clinical symptoms of arthritis (clinical scoring in the paws) ([1]; 5.0 μg/kg once daily i.v.): inhibited
bone loss (histologic scoring) [1, 3]: reduced
pannus formation (histologic scoring) [1, 3]: reduced
bone resorption (knee histopathology scoring) (rats with CIA; [4]): significant reduction
cartilage damage (knee histopathology scoring) (rats with CIA; [4]): significant reduction
inflammation (knee histopathology scoring) (rats with CIA; [4]): significant reduction
pannus (knee histopathology scoring) (rats with CIA; [4]): significant reduction
knee histopathology scores (rats with CIA; therapeutic dosing, FIG. 3): significantly reduced
bone resorption (rats with CIA; therapeutic dosing, FIG. 4): protected
joint damage (rats with CIA; therapeutic dosing, FIG. 4): protected
